The text below walks through data of US12522595B2, “Bicyclic ether O-glycoprotein-2-acetamido-2-deoxy-3-D-glucopyranosidase inhibitors” (BIOGEN MA INC., priority 2019, dated 2026).

In this assay the target is T1, Recombinant full length human OGA enzyme (Homo sapiens, UniProt O60502).
T1 construct: Recombinant full length human OGA enzyme was purchased from Origene; purchased Origene
T1 sequence (O60502 1-916): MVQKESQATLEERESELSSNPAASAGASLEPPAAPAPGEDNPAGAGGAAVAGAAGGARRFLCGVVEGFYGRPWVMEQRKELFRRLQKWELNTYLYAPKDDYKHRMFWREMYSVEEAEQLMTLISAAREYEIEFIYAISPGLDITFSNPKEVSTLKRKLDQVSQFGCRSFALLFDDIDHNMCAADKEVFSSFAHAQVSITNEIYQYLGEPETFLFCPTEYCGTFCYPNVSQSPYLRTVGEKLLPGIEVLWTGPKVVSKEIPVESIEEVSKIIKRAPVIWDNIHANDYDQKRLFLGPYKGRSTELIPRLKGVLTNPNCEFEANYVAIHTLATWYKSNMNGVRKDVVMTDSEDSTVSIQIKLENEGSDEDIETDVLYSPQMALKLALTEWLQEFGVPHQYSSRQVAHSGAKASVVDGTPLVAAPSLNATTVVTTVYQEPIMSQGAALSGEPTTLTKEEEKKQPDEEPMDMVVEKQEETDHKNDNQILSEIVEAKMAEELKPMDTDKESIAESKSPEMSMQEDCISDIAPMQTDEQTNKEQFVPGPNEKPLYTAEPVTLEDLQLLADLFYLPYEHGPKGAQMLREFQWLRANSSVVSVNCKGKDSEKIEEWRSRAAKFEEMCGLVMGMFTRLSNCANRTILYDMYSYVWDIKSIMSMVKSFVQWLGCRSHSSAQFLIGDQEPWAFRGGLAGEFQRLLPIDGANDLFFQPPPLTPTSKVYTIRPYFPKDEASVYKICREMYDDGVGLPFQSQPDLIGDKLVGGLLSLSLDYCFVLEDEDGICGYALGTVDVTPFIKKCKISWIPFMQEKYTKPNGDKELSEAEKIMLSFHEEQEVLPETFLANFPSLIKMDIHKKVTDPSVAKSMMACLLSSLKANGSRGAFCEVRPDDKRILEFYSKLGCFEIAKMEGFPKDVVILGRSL
As to the kind of experiment: OGA enzyme inhibition biochemical assay. The following applies: 1 nM OGA, 100 μM 4-MUGlcNAc (Km), pH 6.4, 90 minutes at room temperature, 10-point dose-response from 20 μM. Here is the method: N-(5-(((2S,4R)-4-([1,2,4]triazolo[4,3-a]pyrazin-3-yloxy)-2-methylpyrrolidin-1-yl)methyl)-4-fluorothiazol-2-yl)acetamide: The title compound was prepared in an analogous manner as Example 172 from 3-bromo-[1,2,4]triazolo[4,3-a]pyrazine. LCMS (ESI): [M+H] 392. ^1H NMR (600 MHz, CHLOROFORM-d) δ 10.75 (br s, 1H), 9.04 (s, 1H), 9.03 (s, 1H), 7.24 (s, 1H), 4.99-5.06 (m, 1H), 4.01 (d, J=14.49 Hz, 1H), 3.64 (d, J=14.67 Hz, 1H), 3.40 (d, J=11.55 Hz, 1H), 2.75 (dd, J=5.78, 11.46 Hz, 1H), 2.61-2.72 (m, 2H), 2.32 (s, 4H), 1.84-1.92 (m, 1H), 1.30 (d, J=5.87 Hz, 4H). ^19F NMR (565 MHz, CHLOROFORM-d) 6-115.92 (br s, 1F). OGA Enzyme Inhibition Biochemical Assay
Recombinant full length human OGA enzyme was purchased from Origene. 4-MUGlCNAc substrate was purchased from Sigma. All other reagents were purchased from Sigma or Fisher. Assay buffer consists of the McIlvaine buffer system, pH 6.4 (0.2M Na2HPO4 mixed with 0.1M citric acid) and 0.01% BSA. Reactions consist of 1 nM OGA, 100 μM 4-MUGlcNAc (Km), and compound in a final volume of 10 μl. Reactions were incubated for 90 minutes at room temperature and quenched with 40 μl of 3M glycine, pH 10 and read on a Perkin Elmer Envision plate reader (Ex: 355 nm/Em: 460 nm). Compounds were tested with a 10-point dose-response starting from 20 μM with a 4-fold dilution. Data, as presented in Table 1 below, was fit using GraphPad Prism using a 4-parameter fit with variable slope.
For orientation: IC50 means the concentration that inhibits the measured activity by half. Consider `CC(=O)Nc1nc(F)c(CN2C[C@H](Oc3ccn4ncnc4c3)C[C@@H]2C)s1` [Example 107, N-(5-(((2S,4R)-4-([1,2,4]triazolo[1,5-a]pyridin-7-yloxy)-2-methylpyrrolidin-1-yl)methyl)-4-fluorothiazol-2-yl)acetamide], for which the IC50 was less than 1 nM. The figure for `CC(=O)Nc1nc(F)c(CN2C[C@H](Oc3ccnc4nn(C)cc34)C[C@@H]2C)s1` [Example 140, N-(4-fluoro-5-(((2S,4R)-2-methyl-4-((2-methyl-2H-pyrazolo[3,4-b]pyridin-4-yl)oxy)pyrrolidin-1-yl)methyl)thiazol-2-yl)acetamide] is less than 1 nM; for `CC(=O)Nc1nc(F)c(CN2C[C@H](Oc3ccnc4cnn(C)c34)C[C@@H]2C)s1` [Example 135, N-(4-fluoro-5-(((2S,4R)-2-methyl-4-((1-methyl-1H-pyrazolo[4,3-b]pyridin-7-yl)oxy)pyrrolidin-1-yl)methyl)thiazol-2-yl)acetamide] it is less than 1 nM; for `CC(=O)Nc1ncc(CN2C[C@H](Oc3nn4c(C(F)(F)F)nnc4c(C)c3C)C[C@@H]2C)s1` [Example 20, N-(5-(((2S,4R)-4-((7,8-dimethyl-3-(trifluoromethyl)-[1,2,4]triazolo[4,3-b]pyridazin-6-yl)oxy)-2-methylpyrrolidin-1-yl)methyl)thiazol-2-yl)acetamide] it is 1.6 nM. The figure for `CC(=O)Nc1nc(F)c(CN2C[C@H](Oc3cnc4nccn4c3)C[C@@H]2C)s1` [Example 164, N-(4-fluoro-5-(((2S,4R)-4-(imidazo[1,2-a]pyrimidin-6-yloxy)-2-methylpyrrolidin-1-yl)methyl)thiazol-2-yl)acetamide] is less than 1 nM; for `CC(=O)Nc1ncc(CN2C[C@H](Oc3ncc4c(C)csc4n3)C[C@@H]2C)s1` [Example 3, N-(5-(((2S,4R)-2-methyl-4-((5-methylthieno[2,3-d]pyrimidin-2-yl)oxy)pyrrolidin-1-yl)methyl)thiazol-2-yl)acetamide] it is less than 1 nM; for `CC(=O)Nc1nc(F)c(CN2C[C@H](Oc3cccc4nn(C)cc34)C[C@@H]2C)s1` [Example 84, N-(4-fluoro-5-(((2S,4R)-2-methyl-4-((2-methyl-2H-indazol-4-yl)oxy)pyrrolidin-1-yl)methyl)thiazol-2-yl)acetamide] it is less than 1 nM. The figure for `CC(=O)Nc1nc(F)c(CN2C[C@H](Oc3ccn4cnnc4c3)C[C@@H]2C)s1` [Example 146, N-(5-(((2S,4R)-4-([1,2,4]triazolo[4,3-a]pyridin-7-yloxy)-2-methylpyrrolidin-1-yl)methyl)-4-fluorothiazol-2-yl)acetamide] is less than 1 nM. On to `CC(=O)Nc1ncc(CN2C[C@H](Oc3cccc4nn(C)cc34)C[C@@H]2C)s1` [Example 83, N-(5-(((2S,4R)-2-methyl-4-((2-methyl-2H-indazol-4-yl)oxy)pyrrolidin-1-yl)methyl)thiazol-2-yl)acetamide], for which the IC50 is 1.1 nM.

Regarding `CC(=O)Nc1ncc(CN2C[C@H](Oc3cc4ccccc4nc3C#N)C[C@@H]2C)s1` [Example 31, N-(5-(((2S,4R)-4-((2-cyanoquinolin-3-yl)oxy)-2-methylpyrrolidin-1-yl)methyl)thiazol-2-yl)acetamide], the IC50 worked out at 9.7 nM.

For the compound `CC(=O)Nc1nc(F)c(CN2C[C@H](Oc3nccn4ccnc34)C[C@@H]2C)s1` [Example 96, N-(4-fluoro-5-(((2S,4R)-4-(imidazo[1,2-a]pyrazin-8-yloxy)-2-methylpyrrolidin-1-yl)methyl)thiazol-2-yl)acetamide], the IC50 is less than 1 nM. Regarding `COc1ccc2ccc(O[C@@H]3C[C@H](C)N(Cc4cnc(NC(C)=O)s4)C3)nc2n1` [Example 166, N-(5-(((2S,4R)-4-((7-methoxy-1,8-naphthyridin-2-yl)oxy)-2-methylpyrrolidin-1-yl)methyl)thiazol-2-yl)acetamide], the 50% inhibitory concentration (IC50) was less than 1 nM. The figure for `CC(=O)Nc1nc(F)c(CN2C[C@H](Oc3nccn4cc(C)nc34)C[C@@H]2C)s1` [Example 103, N-(4-fluoro-5-(((2S,4R)-2-methyl-4-((2-methylimidazo[1,2-a]pyrazin-8-yl)oxy)pyrrolidin-1-yl)methyl)thiazol-2-yl)acetamide] is less than 1 nM; for `CC(=O)Nc1nc(F)c(CN2C[C@H](Oc3ccc4ccnn4c3)C[C@@H]2C)s1` [Example 54, N-(4-fluoro-5-(((2S,4R)-2-methyl-4-(pyrazolo[1,5-a]pyridin-6-yloxy)pyrrolidin-1-yl)methyl)thiazol-2-yl)acetamide] it is less than 1 nM; for `CC(=O)Nc1nc(F)c(CN2C[C@H](Oc3ccc4nn(C(F)F)cc4n3)C[C@@H]2C)s1` [Example 154, N-(5-(((2S,4R)-4-((2-(difluoromethyl)-2H-pyrazolo[4,3-b]pyridin-5-yl)oxy)-2-methylpyrrolidin-1-yl)methyl)-4-fluorothiazol-2-yl)acetamide] it is less than 1 nM. The figure for `COc1cccn2nc(O[C@@H]3C[C@H](C)N(Cc4sc(NC(C)=O)nc4F)C3)nc12` [Example 148, N-(4-fluoro-5-(((2S,4R)-4-((8-methoxy-[1,2,4]triazolo[1,5-a]pyridin-2-yl)oxy)-2-methylpyrrolidin-1-yl)methyl)thiazol-2-yl)acetamide] is less than 1 nM; for `CC(=O)Nc1nc(F)c(CN2C[C@H](Oc3ccn4nc(C)cc4n3)C[C@@H]2C)s1` [Example 112, N-(4-fluoro-5-(((2S,4R)-2-methyl-4-((2-methylpyrazolo[1,5-a]pyrimidin-5-yl)oxy)pyrrolidin-1-yl)methyl)thiazol-2-yl)acetamide] it is less than 1 nM. `CC(=O)Nc1ncc(CN2C[C@H](Oc3nccc4sccc34)C[C@@H]2C)s1` [Example 24, N-(5-(((2S,4R)-2-methyl-4-(thieno[3,2-c]pyridin-4-yloxy)pyrrolidin-1-yl)methyl)thiazol-2-yl)acetamide]: the IC50 turned out to be 2.5 nM. With `CC(=O)Nc1nc(F)c(CN2C[C@H](Oc3nccc4c3cnn4C)C[C@@H]2C)s1` [Example 138, N-(4-fluoro-5-(((2S,4R)-2-methyl-4-((1-methyl-1H-pyrazolo[4,3-c]pyridin-4-yl)oxy)pyrrolidin-1-yl)methyl)thiazol-2-yl)acetamide], the half-inhibitory concentration (IC50) was less than 1 nM. In the case of `CC(=O)Nc1nc(F)c(CN2C[C@H](Oc3nccc4nccnc34)C[C@@H]2C)s1` [Example 115, N-(4-fluoro-5-(((2S,4R)-2-methyl-4-(pyrido[3,4-b]pyrazin-5-yloxy)pyrrolidin-1-yl)methyl)thiazol-2-yl)acetamide], the half-inhibitory concentration (IC50) is 3.8 nM.

As to `CC(=O)Nc1nc(F)c(CN2C[C@H](Oc3ccc4nc(C)nn4c3)C[C@@H]2C)s1` [Example 144, N-(4-fluoro-5-(((2S,4R)-2-methyl-4-((2-methyl-[1,2,4]triazolo[1,5-a]pyridin-6-yl)oxy)pyrrolidin-1-yl)methyl)thiazol-2-yl)acetamide], the half-inhibitory concentration (IC50) is less than 1 nM. In the case of `COc1ccc2ccc(O[C@@H]3C[C@H](C)N(Cc4sc(NC(C)=O)nc4F)C3)nc2n1` [Example 167, N-(4-fluoro-5-(((2S,4R)-4-((7-methoxy-1,8-naphthyridin-2-yl)oxy)-2-methylpyrrolidin-1-yl)methyl)thiazol-2-yl)acetamide], the IC50 was less than 1 nM.

On to `CC(=O)Nc1nc(F)c(CN2C[C@H](Oc3ccn4ccnc4c3)C[C@@H]2C)s1` [Example 43, N-(4-fluoro-5-(((2S,4R)-4-(imidazo[1,2-a]pyridin-7-yloxy)-2-methylpyrrolidin-1-yl)methyl)thiazol-2-yl)acetamide], for which the IC50 is less than 1 nM.
